In patent US8686002B2, “Heterocyclic compounds and their use as binding partners for 5-HT5 receptors” (AbbVie Deutschland GmbH & Co. KG, priority 2005, dated 2014):
pKi: −log10 of the molar value. Where a name gives a salt, the structure may show the parent alone.

Target: 5-HT5A (Homo sapiens, UniProt P47898)
Experiment: Affinity of selected compounds for 5-HT5A (Ki)
Format: binding
Experimental: In both assays, different concentrations of the test substances are used and the Ki and IC50 values are determined.

Sequence of 5-HT5A (P47898 whole entry): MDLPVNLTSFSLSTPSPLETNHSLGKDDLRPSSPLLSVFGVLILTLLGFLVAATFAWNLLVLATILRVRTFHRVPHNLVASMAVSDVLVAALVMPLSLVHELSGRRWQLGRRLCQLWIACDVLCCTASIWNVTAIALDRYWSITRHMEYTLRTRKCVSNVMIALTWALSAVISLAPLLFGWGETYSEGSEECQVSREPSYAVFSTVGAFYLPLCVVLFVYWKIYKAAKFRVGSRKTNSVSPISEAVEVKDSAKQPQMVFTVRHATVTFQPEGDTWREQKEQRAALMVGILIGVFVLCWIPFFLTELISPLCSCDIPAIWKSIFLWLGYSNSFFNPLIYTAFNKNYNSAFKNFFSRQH

Row | pKi | Compound
1 | > 6.52 | COc1ccccc1Cc1cc2ccccc2nc1N [Example 1, 3-(2-Methoxybenzyl)quinolin-2-amine]
2 | > 6.52 | COc1cccc(O)c1Cc1cc2ccccc2nc1N [Example 2, 2-[(2-Aminoquinolin-3-yl)methyl]-3-methoxyphenol]
3 | > 6.52 | COc1cccc(OC)c1Cc1cc2ccccc2nc1N [Example 3, 3-(2,6-Dimethoxybenzyl)quinolin-2-amine]
4 | > 6.52 | CCOc1cccc(OC)c1Cc1cc2ccccc2nc1N [Example 4, 3-(2-Ethoxy-6-methoxybenzyl)quinolin-2-amine]
5 | > 6.52 | COc1cccc(OC(C)C)c1Cc1cc2ccccc2nc1N [Example 5, 3-(2-Isopropoxy-6-methoxybenzyl)quinolin-2-amine]
6 | > 6.52 | COc1ccc2cc(Cc3ccccc3OC)c(N)nc2c1 [Example 6, 7-Methoxy-3-(2-methoxybenzyl)quinolin-2-amine]
7 | > 6.52 | COc1ccc2nc(N)c(Cc3ccccc3OC)cc2c1 [Example 7, 6-Methoxy-3-(2-methoxybenzyl)quinolin-2-amine]
8 | > 6.52 | COc1cccc(OC)c1Cc1cc2cc(Cl)ccc2nc1N [Example 9, 6-Chloro-3-(2,6-dimethoxybenzyl)quinolin-2-amine]
9 | > 6.52 | COc1ccccc1Cc1cc2cc(Cl)ccc2nc1N [Example 11]
10 | > 6.52 | COc1cccc(OC)c1Cc1cc2cc3c(cc2nc1N)OCO3 [Example 12]
11 | > 6.52 | COc1cc2cc(Cc3c(OC)cccc3OC)c(N)nc2cc1OC [Example 13, 3-(2,6-Dimethoxybenzyl)-6,7-dimethoxy-quinolin-2-amine]
12 | > 6.52 | COc1ccccc1Cc1cc2cc3c(cc2nc1N)OCO3 [Example 14, 7-(2-Methoxybenzyl)[1.3]dioxolo[4.5-g]quinolin-6-amine]
13 | > 6.52 | COc1ccccc1Cc1cc2ccc(Cl)cc2nc1N [Example 15, 7-Chloro-3-(2-methoxybenzyl)quinolin-2-amine]
14 | > 6.52 | COc1ccccc1Cc1cc2cc(OC)c(OC)cc2nc1N [Example 16, 6,7-Dimethoxy-3-(2-methoxybenzyl)quinolin-2-amine]
15 | > 6.52 | COc1cccc(F)c1Cc1cc2cc3c(cc2nc1N)OCO3 [Example 17, 7-(2-Fluoro-6-methoxybenzyl)[1.3]dioxolo[4.5-g]quinolin-6-amine]
16 | > 6.52 | COc1ccccc1Cc1cc2cc(F)ccc2nc1N [Example 18, 6-Fluoro-3-(2-methoxybenzyl)quinolin-2-amine]
17 | > 6.52 | COc1ccccc1Cc1cc2c(Cl)cccc2nc1N [Example 19, 5-Chloro-3-(2-methoxybenzyl)quinolin-2-amine]
18 | > 5.00 | COc1cccc(OC)c1Cc1cc2cccnc2nc1N [Example 21, 3-(2,6-Dimethoxybenzyl)-1,8-naphthyridin-2-amine]
19 | > 6.52 | COc1cccc(OC)c1Cc1cc2cnccc2nc1N [Example 22, 3-(2,6-Dimethoxybenzyl)-1,6-naphthyridin-2-amine]
20 | > 6.52 | COc1cccc(OC)c1Cc1cc2cc(F)ccc2nc1N [Example 23, 3-(2,6-Dimethoxybenzyl)-6-fluoroquinolin-2-amine]

Row | pKi | Compound
21 | > 6.52 | COc1cccc(F)c1Cc1cc2cc(F)ccc2nc1N [Example 24, 6-Fluoro-3-(2-fluoro-6-methoxybenzyl)quinolin-2-amine]
22 | > 6.52 | Nc1nc2ccccc2cc1Cc1ccccc1O [Example 25, 2-[(2-Aminoquinolin-3-yl)methyl]phenol]
23 | > 6.52 | COc1cccc(F)c1Cc1cc2ccc(Cl)cc2nc1N [Example 26, 7-Chloro-3-(2-fluoro-6-methoxybenzyl)quinolin-2-amine]
24 | > 6.52 | COc1cccc(Cl)c1Cc1cc2ccc(Cl)cc2nc1N [Example 27, 7-Chloro-3-(2-chloro-6-methoxybenzyl)quinolin-2-amine]
25 | > 6.52 | COc1ccccc1Cc1cc2ccc(N(C)C)cc2nc1N [Example 28, 3-(2-Methoxybenzyl)-N^7,N^7-dimethylquinolin-2,7-diamine]
26 | > 6.52 | COc1cccc(F)c1Cc1cc2ccccc2nc1N [Example 29, 3-(2-Fluoro-6-methoxybenzyl)quinolin-2-amine]
27 | > 6.52 | COc1cccc(Cl)c1Cc1cc2ccccc2nc1N [Example 30, 3-(2-Chloro-6-methoxybenzyl)quinolin-2-amine]
28 | > 6.52 | CCOc1ccc2nc(N)c(Cc3ccccc3OC)cc2c1 [Example 31, 6-Ethoxy-3-(2-methoxybenzyl)quinolin-2-amine]
29 | > 6.52 | CCOc1ccc2nc(N)c(Cc3c(OC)cccc3OC)cc2c1 [Example 32, 6-Ethoxy-3-(2,6-dimethoxybenzyl)quinolin-2-amine]
30 | > 6.52 | COc1ccccc1Cc1cc2cnccc2nc1N [Example 33, 3-(2-Methoxybenzyl)-1,6-naphthyridin-2-amine]
31 | > 5.00 | COc1ccccc1Cc1cc2cccnc2nc1N [Example 34, 3-(2-Methoxybenzyl)-1,8-naphthyridin-2-amine]
32 | > 6.52 | COc1cccc(F)c1Cc1cc2cnccc2nc1N [Example 35, 3-(2-Fluoro-6-methoxybenzyl)-1,6-naphthyridin-2-amine]
33 | > 6.52 | COc1ccccc1Cc1cc2ccncc2nc1N [Example 36, 3-(2-Methoxybenzyl)-1,7-naphthyridin-2-amine]
34 | > 6.52 | COc1cccc(OC)c1Cc1cc2ccncc2nc1N [Example 37, 3-(2,6-Dimethoxybenzyl)-1,7-naphthyridin-2-amine]
35 | > 6.52 | COc1ccccc1Cc1cc2ncccc2nc1N [Example 38, 3-(2-Methoxybenzyl)-1,5-naphthyridin-2-amine]
36 | > 6.52 | COc1ccccc1Cc1cc2ccc(F)cc2nc1N [Example 39, 7-Fluoro-3-(2-methoxybenzyl)quinolin-2-amine]
37 | > 6.52 | COc1cccc(Cl)c1Cc1cc2cc3c(cc2nc1N)OCO3 [Example 40, 7-(2-Chloro-6-methoxybenzyl)[1.3]dioxolo[4,5-g]quinolin-76-amine]
38 | > 6.52 | COc1ccccc1Cc1cc2cc(F)c(F)cc2nc1N [Example 41, 6,7-Difluoro-3-(2-methoxybenzyl)quinolin-2-amine]
39 | > 6.52 | COc1cccc(F)c1Cc1cc2ccc(F)cc2nc1N [Example 42, 7-Fluoro-3-(2-fluoro-6-methoxybenzyl)quinolin-2-amine]
40 | > 6.52 | COCCOc1ccc2nc(N)c(Cc3ccccc3OC)cc2c1 [Example 43, 3-(2-Methoxybenzyl)-6-(2-methoxyethoxy)quinolin-2-amine]

Row | pKi | Compound
41 | > 6.52 | COc1ccccc1Cc1cc2cc(N3CCOCC3)ccc2nc1N [Example 44, 3-(2-Methoxybenzyl)-6-morpholin-4-ylquinolin-2-amine]
42 | > 6.52 | COc1cccc(F)c1Cc1cc2cc(N3CCOCC3)ccc2nc1N [Example 45, 3-(2-Methoxy-6-fluorobenzyl)-6-morpholin-4-ylquinolin-2-amine]
43 | > 6.52 | COc1cccc(OC)c1Cc1cc2ncccc2nc1N [Example 46, 3-(2,6-Dimethoxybenzyl)-1,5-naphthyridin-2-amine]
44 | > 6.52 | COc1cccc(F)c1Cc1cc2ncccc2nc1N [Example 47, 3-(2-Fluoro-6-methoxybenzyl)-1,5-naphthyridin-2-amine]
45 | > 6.52 | COc1ccccc1Cc1cc2cc(N3CCN(C)CC3)ccc2nc1N [Example 48, 3-(2-Methoxybenzyl)-6-(4-methylpiperazin-1-yl)quinolin-2-amine bisfumarate]
46 | > 6.52 | COc1cccc(F)c1Cc1cc2cc(N3CCN(C)CC3)ccc2nc1N [Example 49, 3-(2-Fluoro-6-methoxybenzyl)-6-(4-methylpiperazin-1-yl)quinolin-2-aminomonofumarate]
47 | > 6.52 | COc1ccccc1Cc1cc2cc(N3CCOCC3)c(F)cc2nc1N [Example 50, 7-Fluoro-3-(2-methoxybenzyl)-6-morpholin-4-ylquinolin-2-amine]
48 | > 6.52 | COc1ccccc1Cc1cc2cccc(OC)c2nc1N [Example 51, 8-Methoxy-3-(2-methoxybenzyl)quinolin-2-amine]
49 | > 6.52 | COc1cccc(OC)c1Cc1cc2cccc(OC)c2nc1N [Example 52, 3-(2,6-Dimethoxybenzyl)-8-methoxyquinolin-2-amine hydrochloride]
50 | > 6.52 | Nc1nc2ccccc2cc1Cc1ccccc1OC(F)(F)F [Example 53, 3-[2-(Trifluoromethoxy)benzyl]quinolin-2-amine]
51 | > 6.52 | CC(C)Oc1ccccc1Cc1cc2ccccc2nc1N [Example 54, 3-(2-Isopropoxybenzyl)quinolin-2-amine hydrochloride]
52 | > 6.52 | CCOc1ccccc1Cc1cc2ccccc2nc1N [Example 55, 3-(2-Ethoxybenzyl)quinolin-2-amine hydrochloride]
53 | > 6.52 | CC(C)Oc1cccc(F)c1Cc1cc2ccccc2nc1N [Example 56, 3-(2-Fluoro-6-isopropoxybenzyl)quinolin-2-amine hydrochloride]
54 | > 6.52 | COc1cccc(Cl)c1Cc1cc2ncccc2nc1N [Example 58, 3-(2-Chloro-6-methoxybenzyl)-1,5-naphthyridin-2-amine]
55 | > 6.52 | CCOc1cccc(F)c1Cc1cc2ccccc2nc1N [Example 59, 3-(2-Ethoxy-6-fluorobenzyl)quinolin-2-amine hydrochloride]
56 | > 6.52 | CN(C)CCOc1cccc(F)c1Cc1cc2ccccc2nc1N [Example 60, 3-{2-[2-(Dimethylamino)ethoxy]-6-fluorobenzyl}quinolin-2-amine bishydrochloride]
57 | > 6.52 | Nc1nc2ccccc2cc1Cc1ccccc1OC(F)F [Example 61, 3-[2-(difluoromethoxy)benzyl]quinolin-2-amine]
58 | > 6.52 | CCOc1ccccc1Cc1cc2cc(N3CCOCC3)ccc2nc1N [Example 62, 3-(2-Ethoxygenzyl)-6-morpholin-4-ylquinolin-2-amine monofumarate]
59 | > 6.52 | COc1cccc(OC)c1CN1Cc2ccccc2N=C1N [Example 63, 3-(2,6-Dimethoxybenzyl)-3,4-dihydroquinazolin-2-amine acetate]

Row | Compound | pKi
60 | 3-(2-Methoxybenzyl)-N-(1-naphthylmethyl)-3,4-dihydroquinazolin-2-amine hydrochloride [Example 99] | > 5.00
